# Assay results as given in patent US10633669B2, “Herbicide-resistant protein, encoding gene and use thereof” (BEIJING DABEINONG TECHNOLOGY GROUP CO., LTD., priority 2015, dated 2020).
# Key:
# [1] = system: wild type soybean plants (CK1); test: Herbicide-resistance effect of wild type soybean (spray, damage degree); assay type: in vivo; conditions: wild-type soybean strain CK1, 2240 g ae/ha; for Average damage % 6HAT: 6 hours after spraying; for Average damage % 2DAT: 2 days after spraying; for Average damage % 7DAT: 7 days after spraying; for Average damage % 14DAT: 14 days after spraying
# Method: (§1) Herbicide resistance effects tests to 2,4-D dimethyl ammonium salt and agroxone of soybean plants containing 24DT11 nucleotide sequence and control nucleotide sequence respectively and wild type soybean plants (stages V3-V4) were performed respectively.
# (§2) Soybean plants containing 24DT11 nucleotide sequence, control nucleotide sequence and wild type soybean plants were taken and spayed with 2,4-D dimethyl ammonium salt (2240 g ae/ha, four-folds concentration in field), agroxone (2240 g ae/ha, four-folds concentration in field) and blank solvent (water). Take statistics of the damage degree of each plant caused by herbicides according to the curling degree of leaves and the damage degree of growing point six hours ([…]), two days (2DAT), seven days (7DAT) and 14 days (14DAT) after spraying respectively: if leaves are flat like wild-type leaves and the growing point is intact, the damage degree is 0%; if leaves curl up and wilt and the growing point is died, the damage degree is 100%. There are three strains contained a transferred 24DT11 nucleotide sequence (S1, S2 and S3), two strains contained a transferred control sequence (S4 and S5) and one wild-type strain (CK1) in total; select 10˜15 plants from each strain for testing.
# [2] = system: wild-type Arabidopsis plants; test: Herbicide resistance effect test of wild-type Arabidopsis (spray); assay type: in vivo, Arabidopsis thaliana; conditions: genotype Wild, 560 g ae/ha; for Moderate resistant (number of plants): curly rosette leaves 7 days after spraying; for Non-resistant (number of plants): dead 14 days after spraying; for High resistant (number of plants): growth consistent with blank solvent 7 days after spraying; for Low resistant (number of plants): incapable of bolting 14 days after spraying
# Description: (§3) 24DT11 gene was used to transform Arabidopsis for the first time. At first, T1 transformants were selected from the background of un-transformed seeds, using glufosinate-ammonium selection scheme. About 20000 T1 seeds are screened among which 282 strains of T1 generation positive transformants (PAT gene) were identified, i.e. the transformation efficiency was about 1.4%. Herbicide resistance effect tests to 2,4-D dimethyl ammonium salt and agroxone of Arabidopsis T1 plants transformed with 24DT11 nucleotide sequence, control nucleotide sequence respectively and wild-type Arabidopsis plants were performed after 18 days of planting.
# (§4) Arabidopsis T1 plants transformed with 24DT11 nucleotide sequence, control nucleotide sequence respectively and wild-type Arabidopsis plants were sprayed with 2,4-D dimethyl ammonium salt (560 g ae/ha, 1-fold concentration in field), agroxone (560 g ae/ha, 1-fold concentration in field) and blank solvent (water). Resistance conditions of the plants were counted 7 days and 14 days after spraying. Plants with growth conditions consistent with blank solvent (water) 7 days after spaying were classified as highly resistant plants; Plants with curly rosette leaves 7 days after spaying were classified as moderately resistant plants; Plants incapable of bolting 14 days after spaying were classified as low-resistant plants and the dead plants 14 days after spaying were classified as non-resistant plants. Because each Arabidopsis T1 plant is an independent transformation event, significant differences of individual T1 responses can be expected under a given dose.
# [3] = system: Arabidopsis T1 plants transformed with control nucleotide sequence; test: Herbicide resistance effect test of Arabidopsis T1 plants with control sequence (spray); assay type: in vivo, Arabidopsis thaliana; conditions: genotype Control, 560 g ae/ha; for Moderate resistant (number of plants): curly rosette leaves 7 days after spraying; for Non-resistant (number of plants): dead 14 days after spraying; for High resistant (number of plants): growth consistent with blank solvent 7 days after spraying; for Low resistant (number of plants): incapable of bolting 14 days after spraying
# Description: as §3, §4
# [4] = system: Corn plants containing control nucleotide sequence (S9 and S10); test: Herbicide-resistance effect test of corn plants with control sequence (spray, prop root development); assay type: in vivo; conditions: 8960 g ae/ha, 21 days after spraying
# Method: (§5) Herbicide resistance effects tests to 2,4-D dimethyl ammonium salt and agroxone of corn plants containing 24DT11 nucleotide sequence, control nucleotide sequence respectively and wild type corn plants (stages V3-V4) were performed respectively.
# (§6) Corn plants containing 24DT11 nucleotide sequence, control nucleotide sequence respectively and wild type corn plants were taken and spayed with 2,4-D dimethyl ammonium salt (8960 g ae/ha, 16-folds concentration in field), agroxone (8960 g ae/ha, 16-folds concentration in field) and blank solvent (water) respectively. Prop root development was counted 21 days after spaying. Three strains (S6, S7 and S8) of corn plants transformed with 24DT11 nucleotide sequence, two strains (S9 and S10) of corn plants transformed with control nucleotide sequence and 1 strain of wild type (CK2) corn were selected and 10-15 plants from each stain were tested.
# [5] = system: wild type corn plants (CK2); test: Herbicide-resistance effect test of wild type corn (spray, prop root development); assay type: in vivo; conditions: wild type corn strain CK2; 8960 g ae/ha; 21 days after spraying
# Method: as §5, §6
# [6] = system: Corn plants containing 24DT11 nucleotide sequence (S6, S7 and S8); test: Herbicide-resistance effect test of transgenic corn plants (spray, prop root development); assay type: in vivo; conditions: 21 days after spraying
# Method: as §5, §6
# [7] = system: Soybean plants containing control nucleotide sequence (S4 and S5); test: Herbicide-resistance effect of soybean plants with control sequence (spray, damage degree); assay type: in vivo; conditions: 2240 g ae/ha; for Average damage % 6HAT: 6 hours after spraying; for Average damage % 2DAT: 2 days after spraying; for Average damage % 7DAT: 7 days after spraying; for Average damage % 14DAT: 14 days after spraying
# Method: as §1, §2
# [8] = system: Soybean plants containing 24DT11 nucleotide sequence (S1, S2 and S3); test: Herbicide-resistance effect of transgenic soybean plants (spray, damage degree); assay type: in vivo; conditions: for Average damage % 6HAT: 6 hours after spraying; for Average damage % 2DAT: 2 days after spraying; for Average damage % 7DAT: 7 days after spraying; for Average damage % 14DAT: 14 days after spraying
# Method: as §1, §2
# [9] = system: Arabidopsis T1 plants transformed with 24DT11 nucleotide sequence; test: Herbicide resistance effect test of transgenic Arabidopsis T1 plants (spray); assay type: in vivo, Arabidopsis thaliana; conditions: genotype 24DT11; for High resistant (number of plants): 560 g ae/ha (1-fold field concentration), growth consistent with blank solvent 7 days after spraying; for Moderate resistant (number of plants) / Non-resistant (number of plants) / Low resistant (number of plants): 560 g ae/ha; for Moderate resistant (number of plants): curly rosette leaves 7 days after spraying; for Non-resistant (number of plants): dead 14 days after spraying; for Low resistant (number of plants): incapable of bolting 14 days after spraying
# Description: as §3, §4
# [10] = corn strain S9 (control sequence)
# [11] = corn strain S10 (control sequence)
# [12] = corn strain S6 (24DT11), 8960 g ae/ha (16-fold field)
# [13] = corn strain S6 (24DT11), 8960 g ae/ha
# [14] = corn strain S7 (24DT11), 8960 g ae/ha
# [15] = corn strain S8 (24DT11), 8960 g ae/ha
# [16] = soybean strain S4 (control sequence)
# [17] = soybean strain S5 (control sequence)
# [18] = soybean strain S1 (24DT11), 2240 g ae/ha (4-fold field)
# [19] = soybean strain S1 (24DT11), 2240 g ae/ha
# [20] = soybean strain S2 (24DT11), 2240 g ae/ha
# [21] = soybean strain S3 (24DT11), 2240 g ae/ha
compound,measurement,setting,value
Cc1cc(Cl)ccc1OCC(=O)O [agroxone],Average damage % 6HAT,[1],34%
same,Average damage % 2DAT,[1],61%
same,Average damage % 7DAT,[1],82%
same,Average damage % 14DAT,[1],100%
same,Moderate resistant (number of plants),[2],0
same,Non-resistant (number of plants),[2],32
same,High resistant (number of plants),[2],0
same,Low resistant (number of plants),[2],0
same,Moderate resistant (number of plants),[3],0
same,Non-resistant (number of plants),[3],32
same,High resistant (number of plants),[3],0
same,Low resistant (number of plants),[3],0
same,Abnormal development of brace roots (number of plants),[4]; [10],14
same,Normal development of brace roots (number of plants),[4]; [10],0
same,Proportion of normal development of brace roots,[4]; [10],0%
same,Abnormal development of brace roots (number of plants),[4]; [11],12
same,Normal development of brace roots (number of plants),[4]; [11],0
same,Proportion of normal development of brace roots,[4]; [11],0%
same,Abnormal development of brace roots (number of plants),[5],15
same,Normal development of brace roots (number of plants),[5],0
same,Proportion of normal development of brace roots,[5],0%
same,Normal development of brace roots (number of plants),[6]; [12],11
same,Abnormal development of brace roots (number of plants),[6]; [13],0
same,Proportion of normal development of brace roots,[6]; [13],100.00%
same,Abnormal development of brace roots (number of plants),[6]; [14],0
same,Normal development of brace roots (number of plants),[6]; [14],11
same,Proportion of normal development of brace roots,[6]; [14],100.00%
same,Abnormal development of brace roots (number of plants),[6]; [15],0
same,Normal development of brace roots (number of plants),[6]; [15],12
same,Proportion of normal development of brace roots,[6]; [15],100.00%
same,Average damage % 6HAT,[7]; [16],38%
same,Average damage % 2DAT,[7]; [16],69%
same,Average damage % 7DAT,[7]; [16],87%
same,Average damage % 14DAT,[7]; [16],100%
same,Average damage % 6HAT,[7]; [17],47%
same,Average damage % 2DAT,[7]; [17],74%
same,Average damage % 7DAT,[7]; [17],92%
same,Average damage % 14DAT,[7]; [17],100%
same,Average damage % 6HAT,[8]; [18],12%
same,Average damage % 2DAT,[8]; [19],7%
same,Average damage % 7DAT,[8]; [19],0%
same,Average damage % 14DAT,[8]; [19],0%
same,Average damage % 6HAT,[8]; [20],9%
same,Average damage % 2DAT,[8]; [20],5%
same,Average damage % 7DAT,[8]; [20],0%
same,Average damage % 14DAT,[8]; [20],0%
same,Average damage % 6HAT,[8]; [21],19%
same,Average damage % 2DAT,[8]; [21],12%
same,Average damage % 7DAT,[8]; [21],7%
same,Average damage % 14DAT,[8]; [21],4%
same,High resistant (number of plants),[9],22
same,Moderate resistant (number of plants),[9],4
same,Non-resistant (number of plants),[9],3
same,Low resistant (number of plants),[9],2
"CNC.O=C(O)COc1ccc(Cl)cc1Cl [2,4-D dimethyl ammonium salt]",Average damage % 6HAT,[1],48%
same,Average damage % 2DAT,[1],72%
same,Average damage % 7DAT,[1],94%
same,Average damage % 14DAT,[1],100%
same,Moderate resistant (number of plants),[2],0
same,Non-resistant (number of plants),[2],32
same,High resistant (number of plants),[2],0
same,Low resistant (number of plants),[2],0
same,Moderate resistant (number of plants),[3],0
same,Non-resistant (number of plants),[3],32
same,High resistant (number of plants),[3],0
same,Low resistant (number of plants),[3],0
same,Abnormal development of brace roots (number of plants),[4]; [10],13
same,Normal development of brace roots (number of plants),[4]; [10],0
same,Proportion of normal development of brace roots,[4]; [10],0%
same,Abnormal development of brace roots (number of plants),[4]; [11],12
same,Normal development of brace roots (number of plants),[4]; [11],0
same,Proportion of normal development of brace roots,[4]; [11],0%
same,Abnormal development of brace roots (number of plants),[5],14
same,Normal development of brace roots (number of plants),[5],0
same,Proportion of normal development of brace roots,[5],0%
same,Normal development of brace roots (number of plants),[6]; [12],15
same,Abnormal development of brace roots (number of plants),[6]; [13],0
same,Proportion of normal development of brace roots,[6]; [13],100.00%
same,Abnormal development of brace roots (number of plants),[6]; [14],0
same,Normal development of brace roots (number of plants),[6]; [14],13
same,Proportion of normal development of brace roots,[6]; [14],100.00%
same,Abnormal development of brace roots (number of plants),[6]; [15],0
same,Normal development of brace roots (number of plants),[6]; [15],12
same,Proportion of normal development of brace roots,[6]; [15],100.00%
same,Average damage % 6HAT,[7]; [16],46%
same,Average damage % 2DAT,[7]; [16],76%
same,Average damage % 7DAT,[7]; [16],96%
same,Average damage % 14DAT,[7]; [16],100%
same,Average damage % 6HAT,[7]; [17],53%
same,Average damage % 2DAT,[7]; [17],77%
same,Average damage % 7DAT,[7]; [17],91%
same,Average damage % 14DAT,[7]; [17],100%
same,Average damage % 6HAT,[8]; [18],7%
same,Average damage % 2DAT,[8]; [19],4%
same,Average damage % 7DAT,[8]; [19],0%
same,Average damage % 14DAT,[8]; [19],0%
same,Average damage % 6HAT,[8]; [20],5%
same,Average damage % 2DAT,[8]; [20],2%
same,Average damage % 7DAT,[8]; [20],0%
same,Average damage % 14DAT,[8]; [20],0%
same,Average damage % 6HAT,[8]; [21],13%
same,Average damage % 2DAT,[8]; [21],6%
same,Average damage % 7DAT,[8]; [21],2%
same,Average damage % 14DAT,[8]; [21],0%
same,High resistant (number of plants),[9],26
same,Moderate resistant (number of plants),[9],2
same,Non-resistant (number of plants),[9],3
same,Low resistant (number of plants),[9],1
